Common to all, as to assay: Picrotoxin inhibition of GABA responses, two electrode voltage clamp in Xenopus oocytes
What all share (assay type): cell-based

Assay [1] deals with T1, 4M2 mutant Drosophila RDL receptor (N-7′H, T6′M, A20′S and A21′Q) (Drosophila melanogaster, UniProt P25123, A319S/A320Q/N292H/T305M).
T1 construct: expressed in transfected cells; host or cells: Xenopus laevis oocytes injected with cRNA
T1 sequence (P25123 45-606 N292H/T305M/A319S/A320Q): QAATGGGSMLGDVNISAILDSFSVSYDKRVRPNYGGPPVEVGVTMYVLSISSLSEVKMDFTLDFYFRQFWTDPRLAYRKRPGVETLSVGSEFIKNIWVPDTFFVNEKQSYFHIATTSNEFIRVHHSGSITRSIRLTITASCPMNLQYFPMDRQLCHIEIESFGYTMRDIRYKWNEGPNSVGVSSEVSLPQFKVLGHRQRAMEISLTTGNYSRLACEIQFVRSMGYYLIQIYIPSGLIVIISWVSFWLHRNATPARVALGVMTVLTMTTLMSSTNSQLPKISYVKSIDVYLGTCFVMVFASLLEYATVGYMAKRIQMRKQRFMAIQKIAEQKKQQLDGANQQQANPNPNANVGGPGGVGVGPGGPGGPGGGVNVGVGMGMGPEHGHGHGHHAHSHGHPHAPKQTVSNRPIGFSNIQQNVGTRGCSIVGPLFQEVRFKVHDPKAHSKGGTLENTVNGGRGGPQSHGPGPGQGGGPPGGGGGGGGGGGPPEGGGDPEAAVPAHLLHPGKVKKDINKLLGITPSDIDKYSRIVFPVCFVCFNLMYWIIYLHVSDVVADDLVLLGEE
Particulars: 4M2 RDL. How it is done: (§1) X. laevis oocyte-positive females were purchased from NASCO (Fort Atkinson, Wisconsin, USA) and maintained according to standard methods. Harvested stage V-VI Xenopus oocytes were washed in four changes of ND96 (96 mM NaCl, 2 mM KCl, 1 mM MgCl2, 1 mM CaCl2, 5 mM HEPES, pH 7.5), de-folliculated in 1.5 mg ml^−1 collagenase Type 1A for approximately 2 h, washed again in four changes of ND96 and stored in ND96 containing 2.5 mM sodium pyruvate, 0.7 mM theophylline and […].
(§2) Drosophila RDL subunit cDNA (kindly gifted from N.Millar) was subcloned into pGEMHE for oocyte expression as previously described ([McGonigle and Lummis, 2010], [Millar et al., 1994]). Site directed mutagenesis was performed with the QuikChange mutagenesis kit (Agilent, La Jolla, CA). cRNA was transcribed in vitro from linearised pGEMHE cDNA template using the mMessage mMachine T7 Transcription kit (Ambion, Austin, Texas, USA). Stage V and VI oocytes were injected with 5 ng cRNA, incubated at 18 °C, and currents recorded 18–24 h post-injection.
(§3) Xenopus oocytes were clamped at −60 mV using an OC-725 amplifier (Warner Instruments, Connecticut, USA), Digidata 1322A and the Strathclyde Electrophysiology Software Package (Department of Physiology and Pharmacology, University of Strathclyde, UK), or using the Roboocyte (MultiChannel Systems). Currents were recorded at 5 kHz and filtered at a frequency of 1 kHz. Micro-electrodes were fabricated from borosilicate glass (GC120TF-10, Harvard Apparatus, Edenbridge, Kent, UK) using a one stage horizontal pull (P-87, Sutter Instrument Company, California, USA) and filled with 3 M KCl. Pipette resistances ranged from 1.0 to 2.0 MΩ. Oocytes were perfused with ND96 at a constant rate of 12 ml min^−1. Drug application was via a simple gravity fed system calibrated to run at the same rate.
(§4) Analysis and curve fitting was performed using Prism v5 (GraphPad Software, San Diego, California, USA). Concentration-response data for each oocyte was normalised to the maximum current for that oocyte. The mean and S.E.M. for a series of oocytes were fitted to the four parameter logistic equation in Prism.

The target of assay [2] is T2, A21′Q mutant Drosophila RDL receptor (Drosophila melanogaster, UniProt P25123, A320Q).
T2 construct: expressed in transfected cells; host or cells: Xenopus laevis oocytes injected with cRNA
T2 sequence (P25123 45-606 A320Q): T1 sequence (P25123 45-606 N292H/T305M/A319S/A320Q) with H248N, M261T, S275A
How it is done:
as §1, §2, §3, §4

Assay [3] concerns the target T3, N-7′H mutant Drosophila RDL receptor (Drosophila melanogaster, UniProt P25123, N292H).
T3 construct: expressed in transfected cells; host or cells: Xenopus laevis oocytes injected with cRNA
T3 sequence (P25123 45-606 N292H): T1 sequence (P25123 45-606 N292H/T305M/A319S/A320Q) with M261T, S275A, Q276A
Conditions: N-7′H RDL. How it is done: as §1, §2, §3, §4

Substitutions are numbered along the chain they refer to. Where only a bound is given, the exact number is not on record here.

Consider picrotoxin, for which the “Sensitivity to PTX” value in assay [1] (PTX up to 100 μM) was “insensitive”. Moreover, the IC50 in assay [1] (inhibition of GABA responses, read-out: Picrotoxin pIC50 (converted)) is above 100000 nM; in assay [2] it was 360 nM; in assay [3], 560 nM. The figures for the “Picrotoxin pIC50” value in assay [2] and in assay [3] were 6.45 ± 0.25 and 6.25 ± 0.64, respectively.

Source of the values: PMC4261083, “An atypical residue in the pore of Varroa destructor GABA-activated RDL receptors affects picrotoxin block and thymol modulation” (Insect Biochemistry and Molecular Biology, 2014).
